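GI50 = concentration required for 50% inhibition of growth. TGI denotes the concentration required for complete inhibition of growth.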
Tests used:
Test in all cases: growth of human tumour cells (NCI), 384-well format
[1] = tested on: 786-0 renal
[2] = tested on: A498 renal
[3] = tested on: ACHN renal
[4] = tested on: BT-549 breast
[5] = tested on: CAKI-1 renal
[6] = tested on: COLO 205 colon
[7] = tested on: DU-145 prostate
[8] = tested on: EKVX NSCLC
[9] = tested on: HCT-116 colon
[10] = tested on: HCT-15 colon
[11] = tested on: HL-60(TB) leukemia
[12] = tested on: HOP-62 NSCLC
[13] = tested on: HOP-92 NSCLC
[14] = tested on: HS 578T breast
[15] = tested on: HT29 colon
[16] = tested on: IGROV1 ovarian
[17] = tested on: K-562 leukemia
[18] = tested on: KM12 colon
[19] = tested on: M14 melanoma
[20] = tested on: MALME-3M melanoma
[21] = tested on: MDA-MB-231 breast
[22] = tested on: MDA-MB-435 melanoma
[23] = tested on: MDA-MB-468 breast
[24] = tested on: MOLT-4 leukemia
[25] = tested on: NCI-H226 lung
[26] = tested on: NCI-H23 lung
[27] = tested on: NCI-H322M lung
[28] = tested on: NCI-H460 NSCLC
[29] = tested on: NCI-H522 lung
[30] = tested on: OVCAR-3 ovarian
[31] = tested on: OVCAR-4 ovarian
[32] = tested on: OVCAR-5 ovarian
[33] = tested on: OVCAR-8 ovarian
[34] = tested on: PC-3 prostate
[35] = tested on: RXF 393 renal
[36] = tested on: SF-268 CNS
[37] = tested on: SF-295 CNS
[38] = tested on: SF-539 CNS
[39] = tested on: SK-MEL-2 melanoma
[40] = tested on: SK-MEL-28 melanoma
[41] = tested on: SK-MEL-5 melanoma
[42] = tested on: SK-OV-3 ovarian
[43] = tested on: SN12C renal
[44] = tested on: SNB-19 CNS
[45] = tested on: SNB-75 CNS
[46] = tested on: SR leukemia
[47] = tested on: SW-620 colon
[48] = tested on: T-47D breast
[49] = tested on: TK-10 renal
[50] = tested on: U251 glioblastoma
[51] = tested on: UACC-257 melanoma
[52] = tested on: UACC-62 melanoma
[53] = tested on: UO-31 renal

## Nc1nn2cc(F)cnc2c1C(=O)Nc1cncc(F)c1N1CCC(C(=O)N2CCN(C3COC3)CC2)CC1
[1]
  GI50: 0.103 µM
  TGI: 0.323 µM
[2]
  GI50: 0.0345 µM
  TGI: 0.207 µM
[3]
  GI50: 0.0469 µM
  TGI: 0.251 µM
[4]
  GI50: 0.0245 µM
  TGI: 0.0844 µM
[5]
  GI50: 0.185 µM
  TGI: 1.47 µM
[6]
  GI50: 0.218 µM
  TGI: 2.09 µM
[7]
  GI50: 0.0705 µM
  TGI: 0.954 µM
[8]
  GI50: 0.132 µM
  TGI: 0.615 µM
[9]
  GI50: 0.0929 µM
  TGI: 1.75 µM
[10]
  GI50: 0.0347 µM
  TGI: 0.208 µM
[11]
  GI50: 0.0374 µM
  TGI: 0.0838 µM
[12]
  GI50: 0.0214 µM
  TGI: 0.218 µM
[13]
  GI50: 0.0479 µM
  TGI: 0.539 µM
[14]
  GI50: 0.013 µM
  TGI: 0.0422 µM
[15]
  GI50: 0.302 µM
  TGI: > 100 µM
[16]
  GI50: 0.17 µM
  TGI: 1.54 µM
[17]
  GI50: 0.0482 µM
  TGI: 0.179 µM
[18]
  GI50: 0.0327 µM
  TGI: 0.727 µM
[19]
  GI50: 0.035 µM
  TGI: 0.378 µM
[20]
  GI50: 0.0188 µM
  TGI: 0.0532 µM
[21]
  GI50: 0.789 µM
  TGI: > 100 µM
[22]
  GI50: 0.0357 µM
  TGI: 0.308 µM
[23]
  GI50: 0.0294 µM
  TGI: 0.324 µM
[24]
  TGI: 0.0118 µM
[25]
  GI50: 0.327 µM
  TGI: 2.24 µM
[26]
  GI50: 0.0169 µM
  TGI: 0.0552 µM
[27]
  GI50: 0.0339 µM
  TGI: 0.306 µM
[28]
  GI50: 0.0208 µM
  TGI: 0.156 µM
[29]
  GI50: 0.183 µM
  TGI: 0.735 µM
[30]
  GI50: 0.215 µM
  TGI: 1.42 µM
[31]
  GI50: 0.0625 µM
  TGI: 2.44 µM
[32]
  GI50: 0.543 µM
  TGI: > 100 µM
[33]
  GI50: 0.174 µM
  TGI: 0.558 µM
[34]
  GI50: 0.296 µM
  TGI: 2.82 µM
[35]
  GI50: 0.016 µM
  TGI: 0.0532 µM
[36]
  GI50: 0.0776 µM
  TGI: 1.74 µM
[37]
  GI50: 0.0315 µM
  TGI: 0.171 µM
[38]
  GI50: 0.033 µM
  TGI: 0.149 µM
[39]
  GI50: 0.0241 µM
  TGI: 0.0802 µM
[40]
  GI50: 2.04 µM
  TGI: > 100 µM
[41]
  GI50: 0.0986 µM
  TGI: 0.334 µM
[42]
  GI50: 0.0573 µM
  TGI: 0.264 µM
[43]
  GI50: 0.376 µM
  TGI: 2.93 µM
[44]
  GI50: 0.407 µM
  TGI: 4.35 µM
[45]
  GI50: 0.219 µM
  TGI: 1.99 µM
[46]
  TGI: 0.0221 µM
[47]
  GI50: 0.227 µM
  TGI: > 100 µM
[48]
  GI50: 4.73 µM
  TGI: > 100 µM
[49]
  GI50: 0.0299 µM
  TGI: 0.231 µM
[50]
  GI50: 0.141 µM
  TGI: 1.17 µM
[51]
  GI50: 0.332 µM
  TGI: 1.89 µM
[52]
  GI50: 0.223 µM
  TGI: 1.57 µM
[53]
  GI50: 0.194 µM
  TGI: 0.717 µM

Reference: PubChem BioAssay (NCI)
